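All cell lines were grown in 96-well plates and treated with compound for 48 hours. GI50 = concentration required for 50% inhibition of growth. Definition used: TGI = concentration required for complete inhibition of growth.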
Experiments:
Test in all cases: inhibition of tumour cell growth, NCI panel, 48 h
[1] = test system: 786-0 renal
[2] = test system: A498 renal
[3] = test system: A549 NSCLC
[4] = test system: ACHN renal
[5] = test system: BT-549 breast
[6] = test system: CAKI-1 renal
[7] = test system: CCRF-CEM leukemia
[8] = test system: COLO 205 colon
[9] = test system: DU-145 prostate
[10] = test system: EKVX NSCLC
[11] = test system: HCC-2998 colon
[12] = test system: HCT-116 colon
[13] = test system: HCT-15 colon
[14] = test system: HL-60(TB) leukemia
[15] = test system: HOP-62 NSCLC
[16] = test system: HOP-92 NSCLC
[17] = test system: HS 578T breast
[18] = test system: HT29 colon
[19] = test system: IGROV1 ovarian
[20] = test system: K-562 leukemia
[21] = test system: KM12 colon
[22] = test system: LOX IMVI melanoma
[23] = test system: M14 melanoma
[24] = test system: MALME-3M melanoma
[25] = test system: MCF7 breast
[26] = test system: MDA-MB-231 breast
[27] = test system: MDA-MB-435
[28] = test system: MOLT-4 leukemia
[29] = test system: NCI-H226 lung
[30] = test system: NCI-H23 lung
[31] = test system: NCI-H460 lung
[32] = test system: NCI-H522 lung
[33] = test system: NCI/ADR-RES ovarian
[34] = test system: OVCAR-3 ovarian
[35] = test system: OVCAR-4 ovarian
[36] = test system: OVCAR-5 ovarian
[37] = test system: OVCAR-8 ovarian
[38] = test system: PC-3 prostate
[39] = test system: RXF 393 renal
[40] = test system: SF-268 CNS
[41] = test system: SF-295 CNS
[42] = test system: SF-539 CNS
[43] = test system: SK-MEL-2 melanoma
[44] = test system: SK-MEL-28 melanoma
[45] = test system: SK-MEL-5 melanoma
[46] = test system: SK-OV-3 ovarian
[47] = test system: SN12C renal
[48] = test system: SNB-19 CNS
[49] = test system: SNB-75 CNS
[50] = test system: SR leukemia
[51] = test system: T-47D breast
[52] = test system: TK-10 renal
[53] = test system: U251 CNS
[54] = test system: UACC-257 melanoma
[55] = test system: UACC-62 melanoma
[56] = test system: UO-31 renal

## Nc1ncc(-c2ccc3ncnc(N4CCc5cc(F)c(Cl)cc54)c3c2)cc1C=O
[1]
  GI50: 658 nM
  TGI: > 100000 nM
[2]
  GI50: 167 nM
  TGI: 758 nM
[3]
  GI50: 949 nM
  TGI: 12500 nM
[4]
  GI50: 638 nM
  TGI: > 100000 nM
[5]
  GI50: 1310 nM
  TGI: > 100000 nM
[6]
  GI50: 845 nM
  TGI: > 26200 nM
[7]
  GI50: 2120 nM
  TGI: > 100000 nM
[8]
  GI50: 1900 nM
  TGI: > 100000 nM
[9]
  GI50: 936 nM
  TGI: > 100000 nM
[10]
  GI50: 371 nM
  TGI: > 100000 nM
[11]
  GI50: 2290 nM
  TGI: > 100000 nM
[12]
  GI50: 2290 nM
  TGI: > 100000 nM
[13]
  GI50: 2410 nM
  TGI: > 100000 nM
[14]
  GI50: 403 nM
  TGI: 3860 nM
[15]
  GI50: 896 nM
  TGI: > 100000 nM
[16]
  GI50: 149 nM
  TGI: 1460 nM
[17]
  GI50: 369 nM
  TGI: 3060 nM
[18]
  GI50: 1570 nM
  TGI: > 100000 nM
[19]
  GI50: 314 nM
  TGI: 2390 nM
[20]
  GI50: 2820 nM
  TGI: > 100000 nM
[21]
  GI50: 2860 nM
  TGI: > 100000 nM
[22]
  GI50: 2520 nM
  TGI: > 100000 nM
[23]
  GI50: 1850 nM
  TGI: > 100000 nM
[24]
  GI50: 1130 nM
  TGI: > 100000 nM
[25]
  GI50: 1700 nM
  TGI: > 100000 nM
[26]
  GI50: 1800 nM
  TGI: > 100000 nM
[27]
  GI50: 909 nM
  TGI: 6970 nM
[28]
  GI50: 1010 nM
  TGI: 6560 nM
[29]
  GI50: 861 nM
  TGI: > 100000 nM
[30]
  GI50: 2350 nM
  TGI: > 100000 nM
[31]
  GI50: 814 nM
  TGI: > 100000 nM
[32]
  GI50: 2170 nM
  TGI: > 100000 nM
[33]
  GI50: 2820 nM
  TGI: > 100000 nM
[34]
  GI50: 1660 nM
  TGI: > 100000 nM
[35]
  GI50: 2980 nM
  TGI: > 100000 nM
[36]
  GI50: 867 nM
  TGI: > 100000 nM
[37]
  GI50: 2540 nM
  TGI: > 100000 nM
[38]
  GI50: 824 nM
  TGI: > 100000 nM
[39]
  GI50: 471 nM
  TGI: 2140 nM
[40]
  GI50: 1020 nM
  TGI: > 100000 nM
[41]
  GI50: 1320 nM
  TGI: > 27900 nM
[42]
  GI50: 2380 nM
  TGI: > 100000 nM
[43]
  GI50: 1590 nM
  TGI: 6050 nM
[44]
  GI50: 1610 nM
  TGI: > 100000 nM
[45]
  GI50: 1870 nM
  TGI: 4540 nM
[46]
  GI50: 1040 nM
  TGI: 6420 nM
[47]
  GI50: 1050 nM
  TGI: > 100000 nM
[48]
  GI50: 2280 nM
  TGI: > 100000 nM
[49]
  GI50: 191 nM
  TGI: 2770 nM
[50]
  GI50: 2670 nM
  TGI: > 26000 nM
[51]
  GI50: 587 nM
  TGI: > 100000 nM
[52]
  GI50: 248 nM
  TGI: 3650 nM
[53]
  GI50: 2700 nM
  TGI: > 100000 nM
[54]
  GI50: 1640 nM
  TGI: > 100000 nM
[55]
  GI50: 574 nM
  TGI: 3020 nM
[56]
  GI50: 277 nM
  TGI: > 100000 nM
